# Key:
# bEnd.3 cells = experiment: Cell survival rate by tetrazolium blue colorimetry, bEnd.3 cells; format: cell-based; settings: 10 μM (therapeutic dose), FIGS. 13 and 14
# Description: FIG. 13: Evaluation of cell survival rate in a Transwell model. A Transwell model of co-incubation of brain microvascular endothelial cells bEnd.3 and glioma cells U87 MG simulates a pathological blood-brain barrier. Axitinib (10 μM) and an Axitinib analog of phosphatidylinositol kinase (PI3K) inhibitor LY294002 (10 μM) were added into the Transwell chamber. After 24 hours, the survival rate of bEnd.3 cells in the Transwell chamber (Panel A) and U87 MG cells in the Transwell outer chamber (Panel B) were detected by tetrazolium blue colorimetry (n=3).
# FIG. 14: Evaluation of Cytotoxicity for Axitinib and an analog thereof. […] Cell survival rate was detected by tetrazolium blue colorimetry. […]
# The physiological blood-brain barrier and the pathological blood-brain barrier as constructed in Method 1 and Method 2 in the Example 1 were used as models, respectively. […] Absorbance at 570 nm was measured with a microplate reader. The survival rate of cells was calculated according to the following formula: Survival rate of cells (%)=(absorbance value of a test group/absorbance value of a control group)×100%
# In addition, bEnd.3 cells and U87 MG glioma cells were used as model cells to evaluate the cytotoxicity of Axitinib and an Axitinib analog of phosphatidylinositol kinase (PI3K) inhibitor LY294002 with the tetrazolium blue colorimetric method. […] Absorbance at 570 nm was measured with a microplate reader.
# tyrosine hydroxylase = experiment: Striatum tyrosine hydroxylase immunohistochemistry, model of Parkinson's disease; settings: FIG. 29
# [1] = system: pathological blood-brain barrier (bEnd.3 cells with tumor cell culture); experiment: Tumor cell culture co-incubated with bEnd.3 cells (U87MG removed), cell transmembrane resistance; format: cell-based; settings: tumor cell culture kept, 10 μM, 24 hours, FIG. 15
# Description: FIG. 15: Co-incubation of a tumor cell culture and bEnd.3 cells in vitro, regulation of blood-brain barrier permeability by Axitinib and an analog thereof, and determination of a cell transmembrane resistance. A Transwell model of co-incubation of brain microvascular endothelial cells bEnd.3 and glioma cells U87 MG simulates a pathological blood-brain barrier. Once a pathological blood-brain barrier model was formed, U87MG glioma cells in the outer chamber of Transwell were removed, while the tumor cell cultures were remained. Axitinib (10 μM) and an Axitinib analog of phosphatidylinositol kinase (PI3K) inhibitor LY294002 (10 μM) were added to the Transwell chamber. After 24 hours, cell transmembrane resistance was detected by a cell resistance meter. A physiological blood-brain barrier simulated by a Transwell model of brain microvascular endothelial cell bEnd.3 was used as a positive control (n=5).
# The physiological blood-brain barrier and the pathological blood-brain barrier as constructed in Method 1 and Method 2 in the Example 1 were used as models, respectively. Once a pathological blood-brain barrier model was formed, U87MG glioma cells in the outer chamber of Transwell were removed, while the tumor cell cultures were remained. […] Cell transmembrane resistance was detected by a cell resistance meter.
# [2] = system: pathological blood-brain barrier (bEnd.3 cells co-incubated with U87 MG glioma cells); experiment: Pathological blood-brain barrier Transwell model, FITC-dextran transmembrane transport; format: cell-based; settings: 10 μM, 24 hours, then FITC-dextran 10 kDa for 4 hours; FIG. 11
# Description: A Transwell model of co-incubation of brain microvascular endothelial cells bEnd.3 and glioma cells U87 MG simulates a pathological blood-brain barrier. Axitinib (10 μM), an Axitinib analog of phosphatidylinositol kinase (PI3K) inhibitor LY294002 (10 μM), protein kinase B (AKT) agonist SC79 (10 μM) were added into the Transwell chamber. After 24 hours, the Transwell chamber and the outer chamber were cleaned with PBS, and a solution of FITC-dextran in HBSS was added to the Transwell chamber, and was left for 4 hours. […] A physiological blood-brain barrier simulated by a Transwell model of brain microvascular endothelial cell bEnd.3 was used as a positive control (n=3).
# U87 MG glioma cells were used as brain tumor model cells. 1.5 mL suspension of well-grown U87 MG cell suspension was inoculated in a 12-well plate at a cell density of 2×10^5/well. Incubation was continued at 37° C. and 5% CO2 until the cells adhere. […]
# The physiological blood-brain barrier and the pathological blood-brain barrier as constructed in Method 1 and Method 2 in the Example 1 were used as models, respectively. […] After the cells were incubated at 37° C. in the dark for 4 hours, concentration of FITC-dextran transferred to the outer chamber via the Transwell chamber was detected with a fluorescence spectrophotometer.
# Claudin-5 [3] = experiment: VEGF-stimulated physiological blood-brain barrier Transwell model, Claudin-5 immunofluorescence; format: cell-based; settings: bEnd.3 Transwell, exogenous VEGF plus Axitinib 0, 2, 4 μg/mL, 24 hours; FIG. 7
# Description: A Transwell model of brain microvascular endothelial cells bEnd.3 simulates a physiological blood-brain barrier. Transwell chambers were stimulated with the added exogenous vascular endothelial growth factor (VEGF), and further with Axitinib at different concentrations (0, 2 μg/mL, 4 μg/mL) synergistically for 24 hours. Thereafter, Immunofluorescence staining was performed on bEnd.3 cells on the Transwell chamber membrane. […] Panel B is the result of fluorescence semi-quantitative analysis of Claudin-5 expression by Image J (n=3).
# Brain microvascular endothelial cells bEnd.3 were used as model cells of a blood-brain barrier. 0.5 mL suspension of well-grown bEnd.3 cells was inoculated in the chamber of a 12-well Transwell plate with a pore size of 0.4 μm at a cell density of 1×10^5/well. 1.5 mL of fresh culture medium was supplemented in the outer chamber. The culture medium was refreshed every other day. Incubation was continued for 15 days at 37° C. and 5% CO2. When the cell transmembrane resistance value was greater than 150 ohm·cm^2 (Ω·cm^2), a cell model of physiological blood-brain barrier was obtained for evaluation.
# The physiological blood-brain barrier as constructed by Method 1 in the Example 1 was used as a model. Exogenous vascular endothelial cell growth factor (VEGF) and Axitinib at different concentrations were added to the Transwell chamber. […]
# [4] = system: pathological blood-brain barrier; experiment: Evans blue permeation into the brain after treatment, model of Parkinson's disease; format: in vivo, C57/BL6 mice
# Claudin-5 [5] = experiment: Pathological blood-brain barrier Transwell model (bEnd.3 co-incubated with U87 MG), Claudin-5 immunofluorescence; format: cell-based; settings: bEnd.3/U87 MG co-incubation, 24 hours; FIG. 8
# Description: A transwell model of co-incubation of brain microvascular endothelial cells bEnd.3 and glioma cells U87 MG simulates a pathological blood-brain barrier. Axitinib was allowed to act on the Transwell chamber. After 24 hours, immunofluorescent staining was performed on bEnd.3 cells on the Transwell chamber membrane. A physiological blood-brain barrier simulated by a Transwell model of brain microvascular endothelial cell bEnd.3 was used as a positive control group. […] Panel B is the result of fluorescence semi-quantitative analysis of Claudin-5 expression by Image J (n=3).
# Axitinib was added to the Transwell chamber. After the drug was allowed to act for 24 hours, the Transwell cell with bEnd.3 cells grown was transferred to another 12-well plate, washed with PBS for three times, fixed with 4% formaldehyde, and blocked with 10% bovine serum albumin for 30 minutes. Thereafter, Claudin-5 primary antibody was added and incubated at 4° C. overnight, and finally was incubated with fluorescently-labeled secondary antibody for 1 hour. The nucleus was counterstained with DAPI.
# Claudin-5/Occludin = experiment: Pathological blood-brain barrier Transwell model, Claudin-5/Occludin immunofluorescence; format: cell-based; settings: 10 μM, 24 hours; FIG. 12
# Description: A Transwell model of co-incubation of brain microvascular endothelial cells bEnd.3 and glioma cells U87 MG simulates a pathological blood-brain barrier. Axitinib (10 μM), an Axitinib analog of phosphatidylinositol kinase (PI3K) inhibitor LY294002 (10 μM), protein kinase B (AKT) agonist SC79 (10 μM) were added into the Transwell chamber. After 24 hours, immunofluorescent stain was performed on bEnd.3 cells on the Transwell chamber membrane. A physiological blood-brain barrier simulated by a Transwell model of brain microvascular endothelial cell bEnd.3 was used as a positive control.
# U87 MG glioma cells were used as brain tumor model cells. 1.5 mL suspension of well-grown U87 MG cell suspension was inoculated in a 12-well plate at a cell density of 2×10^5/well. Incubation was continued at 37° C. and 5% CO2 until the cells adhere. Then, the physiological blood-brain barrier as constructed by Method 1 in the Example 1, i.e., the Transwell chamber with bEnd.3 cells grown, was transferred to the 12-well plate with U87 MG cells grown. Co-culture was further continued for 24 hours to obtain a cell model of pathological blood-brain barrier.
# [6] = Axitinib 10 mg/kg 7 days vs levodopa 20 mg/kg 10 days
smiles,measurement,setting,value
"CNC(=O)c1ccccc1Sc1ccc2c(/C=C/c3ccccn3)n[nH]c2c1 [Axitinib, N-methyl-2-((3-((1E)-2-(pyridine-2-yl)ethenyl)-1H-indazol-6-yl)sulfanyl)benzamide]",Cytotoxicity,bEnd.3 cells,do not produce significant cytotoxicity
same,"Expression of striatum tyrosine hydroxylase, compared with the levodopa treatment group",tyrosine hydroxylase; [6],superior to that in the levodopa treatment group
same,Expression of striatum tyrosine hydroxylase,"tyrosine hydroxylase; Axitinib 10 mg/kg 7 days, levodopa 20 mg/kg 10 days",significantly up-regulated
same,Cell transmembrane resistance (blood-brain barrier function),[1],the blood-brain barrier function is recovered from a pathologically impaired state to a state close to a physiological barrier
same,FITC-dextran transmembrane transport (blood-brain barrier permeability),[2],reduce blood-brain barrier permeability
same,Expression of tight junction protein Claudin-5,Claudin-5 [3],reduce the degree to which Claudin-5 is down-regulated in a dose-dependent manner
same,"Amount of Evans blue permeated into the brain, compared with the levodopa treatment group",[4]; [6],significantly lower than that of the levodopa treatment group
same,Amount of Evans blue permeated into the brain,"[4]; Axitinib 10 mg/kg tail vein 7 days, levodopa 20 mg/kg intraperitoneally 10 days, vs Parkinson's control, FIGS. 26 and 27",reduced to varied degrees
same,Expression of tight junction protein Claudin-5,Claudin-5 [5],reduce down-regulation of expression of the blood-brain barrier tight junction protein of Claudin-5
same,Expression of tight junction protein Claudin-5/Occludin,Claudin-5/Occludin,reduce the degree to which pathological blood-brain barrier tight junction protein of Claudin-5/Occludin is down-regulated

# — patent publication US12419875B2, “Use of Axitinib and analogs thereof in preparing blood-brain barrier permeability regulator” (ZHEJIANG UNIVERSITY, priority 2018, dated 2025)
